Assay results from paper PMC5352362, “Molecular and functional evaluation of a novel HIF inhibitor, benzopyranyl 1,2,3-triazole compound” (Oncotarget, 2016).
Where two headings read alike, the source gives them in different places.

Key:
HIF-1α = conditions: cited from earlier work
[1] = test system: Lewis lung carcinoma (LLC) cells; assay: Lewis lung carcinoma allograft in C57BL/6J mice with immunohistochemistry; assay type: in vivo, mouse
Description: HIF-1α is synthesized by growth factor signaling pathways, such as those of EGFR [30] [31]. Inhibition of HIF-1α in its pathways of synthesis, as well as in its pathway of degradation, would seem to make for a more efficient anti-cancer/anti-angiogenesis treatment. To confirm this, we performed a tumor allogaft experiment using Lewis lung carcinoma (LLC) cells. 1 × 10^6 LLC cells were inoculated into the mouse flank subcutaneously (s.c.), and treatment with Compound 12 (5 mg/kg) and/or gefitinib (an EGFR inhibitor, 50 mg/kg), via intraperitoneal (i.p.) administration, was performed every other day for 20 days. At Day 20, mice were sacrificed and tumor tissue was fixed in formaldehyde for 1 h for further histological examination. […] To confirm the effect of Compound 12 on angiogenesis, we analyzed angiogenesis using the Matrigel plug assay. […] To confirm the effects of Compound 12 on anti-angiogenesis, we sectioned the tumor tissues to determine microvessel density (MSD) via immunohistochemistry (using CD31 antibody).
Figure 6 Compound 12 suppressed allogaft tumor growth and enhanced the effects of a chemotherapeutic agent (A, B) Lewis lung carcinoma cells were inoculated into flanks of C57BL/6J mice (Day 0). From two days after inoculation, mice were treated intraperitoneally with Compound 12 (5 mg/kg body weight) and gefitinib (50 mg/kg body weight), three times a week, for 18 days and then sacrificed. Tumor size (A) and tumor weight (B) were measured three times a week and on the final day, respectively. Tumor masses were photographed and shown in box below the graph. **P < 0.05 versus control group. (C) Matrigel was treated with DMSO, Compound 12 (100 nM), and gefitinib (5 μM) and inoculated in the flank of C57BL/6J mice. After 10 days matrigel plug was removed and photographed. The content of hemoglobin was quantified and graphed. (D) Tumor tissue sections (10 μm) indicated were stained with H&E and immunostained with anti-CD31 antibody to detect microvessel density; CD31+ cell percentages were then calculated and graphed. Scale bar, 100 μm. **P < 0.05 versus control group. (E) Images and quantitative comparisons (graph) for hypoxic regions, immunostained CA9 protein, and microvessels (CD31+ cells) in tumor center regions are shown. Scale bar, 100 μm. **P < 0.05 versus control group. (F) Images and quantitative comparisons (graph) for Ki67+ proliferating cells in tumor center regions are shown. Scale bar, 100 μm. **P < 0.05 versus control group.
We determined levels of hypoxia in tissues via: 1) antibodies against the hypoxic cell marker pimonidazole (PIMO), and 2) checking expression levels of carbonic anhydrase (CA9), a downstream target of HIF-1.
LLC cells (1 × 10^6) were injected subcutaneously into the flanks of 6-week-old C57BL/6J mice (Day 0)(SLC, Japan). Tumor size and body weight were measured 3 time a week. Tumor tissues were removed at day 20 after completion of injection of vehicle or drugs and fixed with 4% paraformaldehyde (PFA). After tissue processing for frozen sample preparation protocol, samples were embedded in OCT compound and frozen quickly by liquid nitrogen. Frozen blocks were cut into 10 μm sections and stained with hematoxylin and eosin (H&E) for light microscopy. Additional tissue sections for immunohistochemistry were blocked with 5% goat serum in PBST (0.03% Triton X-100 in PBS) and then incubated for 3 h at RT with following primary antibodies, anti-CD31 and anti-Ki67. To detect the hypoxic area in the tumors, Hypoxyprobe-1™ (60 mg/kg, Natural Pharmacia International) was iv injected 90 min before tissue fixation. Tumors were harvested, sectioned and stained with FITC-conjugated anti-Hypoxyprobe antibody.

[2] = test system: angiogenesis (hemoglobin content of Matrigel plug); assay: Matrigel plug assay in C57BL/6J mice; assay type: in vivo, mouse; conditions: Compound 12 100 nM, gefitinib 5 μM in Matrigel, 10 days
Description: HIF-1α is synthesized by growth factor signaling pathways, such as those of EGFR [30] [31]. Inhibition of HIF-1α in its pathways of synthesis, as well as in its pathway of degradation, would seem to make for a more efficient anti-cancer/anti-angiogenesis treatment. To confirm this, we performed a tumor allogaft experiment using Lewis lung carcinoma (LLC) cells. 1 × 10^6 LLC cells were inoculated into the mouse flank subcutaneously (s.c.), and treatment with Compound 12 (5 mg/kg) and/or gefitinib (an EGFR inhibitor, 50 mg/kg), via intraperitoneal (i.p.) administration, was performed every other day for 20 days. […] To confirm the effect of Compound 12 on angiogenesis, we analyzed angiogenesis using the Matrigel plug assay. […]
Figure 6 Compound 12 suppressed allogaft tumor growth and enhanced the effects of a chemotherapeutic agent (A, B) Lewis lung carcinoma cells were inoculated into flanks of C57BL/6J mice (Day 0). […] Tumor size (A) and tumor weight (B) were measured three times a week and on the final day, respectively. […] The content of hemoglobin was quantified and graphed. (D) Tumor tissue sections (10 μm) indicated were stained with H&E and immunostained with anti-CD31 antibody to detect microvessel density; CD31+ cell percentages were then calculated and graphed. […] (F) Images and quantitative comparisons (graph) for Ki67+ proliferating cells in tumor center regions are shown. […]

[3] = test system: chick chorioallantoic membrane angiogenesis; assay: Chick embryo chorioallantoic membrane (CAM) assay; assay type: in vivo; conditions: applied to ED 4.5 CAM for two days; Compound 12 0.1 μg and 1 μg
Description: Figure 5 Compound 12 suppressed HIF-1α target gene expression, and confirmation of in vitro results via determination of effects on angiogenesis in vivo (A) A549 cells were treated with Compound 12 (at concentrations of 0 nM, 1 nM, 10 nM, and 100 nM) for 16 h. The mRNA levels of HIF-1α target genes were determined by semiquantitative RT-PCR. β-actin was used as an internal control. D. DMSO vehicle control. N, normoxia; H, hypoxia. (B) A549 cells were treated with serum-reduced culture media containing Compound 12 (at concentrations of 0 nM, 10 nM, and 100 nM) for 16 h. Media supernatant was collected, and secreted VEGF was determined by ELISA after removal of cellular debris. N, normoxia; H, hypoxia. **P < 0.01 versus hypoxia (H) DMSO (D)-treated control. (C) HUVECs were treated with Compound 12, at the indicated concentrations, in the presence of VEGF (20 ng/mL) for 24 h in 1% serum-containing media. […] Cells that migrated through the membrane (8 μm pore size) were stained with hematoxylin and eosin, pictured as shown in upper panel, and counted (graph). *P < 0.05, **P < 0.01 versus VEGF-treated control. […] (F) Compound 12 (0.1 μg and 1 μg dosages) and retinoic acid (RA, positive control) were applied to the ED 4.5 CAM for two days, neovessel formation from the large vessels was observed, and percentages of positive angiogenic eggs (from total eggs tested) were calculated. […]

[4] = read-out: IC50 of HIF-1α inhibitor

COC(=O)c1ccc(O)c(NC(=O)COc2ccc(C34CC5CC(CC(C5)C3)C4)cc2)c1 [LW6]
IC50 (HIF-1α; [4]): 2500 to 3000 nM

CC1(C)C=Cc2c(ccc(C(=O)/C=C/c3cccs3)c2O)O1 [SYP-5]
IC50 (HIF-1α; [4]): 10000 nM

OCc1ccc(-c2nn(Cc3ccccc3)c3ccccc23)o1 [YC-1, 3-(5′-hydroxymethyl-2′-furyl)-1-benzyl indazole]
IC50 (HIF-1α; [4]): 2000 to 50000 nM

CC(C)C[C@H](NC(=O)[C@H](Cc1ccccc1)NC(=O)c1cnccn1)B(O)O [bortezomib]
concentrations inhibiting p300-HIF-1α binding / HIF-1α (HIF-1α; prostate cancer cells): 0.6 to 30 nM

CS[C@H]1SC[C@H]2C(=O)N(C)[C@@H](C(C)C)C(=O)OC[C@@H](NC(=O)c3cnc4ccccc4n3)C(=O)N[C@@H](C)C(=O)N(C)[C@@H]1C(=O)N(C)[C@@H](C(C)C)C(=O)OC[C@@H](NC(=O)c1cnc3ccccc3n1)C(=O)N[C@@H](C)C(=O)N2C [echinomycin]
IC50 (HIF-1α; reference not given, read-out: inhibitory concentration of HIF-1α inhibitor): 1.2 nM

COc1cc2ncnc(Nc3ccc(F)c(Cl)c3)c2cc1OCCCN1CCOCC1 [gefitinib, reference compound]
levels of PIMO and CA9 in tumors, single agent ([1]; LLC allograft tumor sections): significantly diminished
microvessel density (MSD), CD31, single agent ([1]; LLC allograft tumor sections): significantly decreased MSD
cells expressing Ki-67 protein in tumors ([1]; LLC allograft tumor sections, single agent): significantly decreased
tumor growth, single agent ([1]; LLC allograft, C57BL/6J mice, i.p., Compound 12 5 mg/kg, gefitinib 50 mg/kg): inhibited tumor growth significantly
anti-angiogenic activity, Matrigel plug (hemoglobin content) [2]: anti-angiogenic activity was increased

CC1=C(/C=C/C(C)=C/C=C/C(C)=C/C(=O)O)C(C)(C)CCC1 [retinoic acid, reference compound]
CAM angiogenesis [3]: significantly suppressed CAM angiogenesis
